For experiment [1], the target named is A2A receptor (Homo sapiens, UniProt P29274). Nature of the experiment: A2A receptor antagonist functional assay (cAMP, A2A cell line). In kind it is cell-based. As for the experimental part: (§1) A2a/A2B Receptor Antagonist Functional Assay Test:
(§2) The A2A cell line was derived from PerkinElmer (Product ID: ES-011-C); the A2B cell line was derived from PerkinElmer (Product ID: ES-013-C). The experimental procedure was referred to ACS Medicinal Chemistry Letters (2011) 2, 213-218; the specific test was completed by Pharmaron Beijing Co., Ltd. with the following steps: 10 nL of compound stock in DMSO (10 mM) followed by 10 μL of A2A or A2B cell suspension (30000 cells/mL) were transferred to assay wells of a 384-well plate at room temperature and incubated for 20 minutes at room temperature. The corresponding amount of 5′-N-ethylcarboxamidoadenosine at EC80 activation concentration was transferred to each test well, and incubated for another 30 minutes at 37° C., 5% CO2, 95% humidity, then Eu-cAMP tracer working solution and Ulight-anti-cAMP working solution were added to the cell culture plate at 5 uL/well in sequence, and the cell plate fluorescence was read with Envision (excitation wavelength: 320 nm, emission wavelength: 665 nm and 615 nm). The corresponding inhibition rate in each well was obtained according to the following formula, and a sigmoidal dose-inhibition rate curve was plotted using a non-linear regression model to calculate the IC50 value.

The target in experiment [2] is T1, A2B receptor (Homo sapiens, UniProt P29275).
T1 sequence (P29275 1-332): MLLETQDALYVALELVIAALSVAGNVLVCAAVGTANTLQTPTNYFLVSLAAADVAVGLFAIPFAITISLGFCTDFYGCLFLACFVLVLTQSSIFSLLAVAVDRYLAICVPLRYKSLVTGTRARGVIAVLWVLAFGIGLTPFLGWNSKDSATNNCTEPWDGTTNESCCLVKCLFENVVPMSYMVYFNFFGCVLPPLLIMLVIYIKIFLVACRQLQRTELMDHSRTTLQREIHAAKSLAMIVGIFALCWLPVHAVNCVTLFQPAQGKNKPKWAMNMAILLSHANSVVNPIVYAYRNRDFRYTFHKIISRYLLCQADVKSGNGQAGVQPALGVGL
Nature of the experiment: cell-based. As for the experimental part:
as §1
as §2, with “The experimental procedure was referred to ACS Medicinal Chemistry Letters (2011) 2, 213-218; the specific test was completed by Pharmaron Beijing Co., Ltd. with the following steps: 10 nL of compound stock in DMSO (10 mM) followed by 10 μL of A2A or A2B cell suspension (30000 cells/mL) were transferred to assay wells of a 384-well plate at room temperature and incubated for 20 minutes at room temperature.” left out

The mark [3] stands for this setting: A2A cell line (PerkinElmer ES-011-C), 5'-N-ethylcarboxamidoadenosine at EC80, cAMP readout, read-out: A2A Antagonistic function IC50.
The mark [4] stands for this setting: A2B cell line (PerkinElmer ES-013-C), 5'-N-ethylcarboxamidoadenosine at EC80, cAMP readout, read-out: A2B Antagonistic function IC50.

Like-named read-outs stand apart in the source and are kept apart here.

Sequence of A2A receptor (P29274 whole entry): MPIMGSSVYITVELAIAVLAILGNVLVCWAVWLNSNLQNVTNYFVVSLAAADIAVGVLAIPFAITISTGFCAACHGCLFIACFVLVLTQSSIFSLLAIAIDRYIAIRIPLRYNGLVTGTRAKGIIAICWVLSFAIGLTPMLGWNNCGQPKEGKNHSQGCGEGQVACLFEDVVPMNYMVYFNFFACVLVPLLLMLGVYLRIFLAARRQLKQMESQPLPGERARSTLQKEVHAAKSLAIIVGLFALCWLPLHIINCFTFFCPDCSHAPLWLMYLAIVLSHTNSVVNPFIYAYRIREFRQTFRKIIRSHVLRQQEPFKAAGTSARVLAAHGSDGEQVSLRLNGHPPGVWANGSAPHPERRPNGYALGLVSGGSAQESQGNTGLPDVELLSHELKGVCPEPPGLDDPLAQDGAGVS

As usually defined, the IC50 is the concentration at which inhibition is half-maximal. For `Cc1ccc(-c2nc(N)nc3c(Cc4cccc(CO[C@H]5CCOC5)n4)cnn23)o1` [Compound 18], the 50% inhibitory concentration (IC50) in experiment [1] (setting [3]) came out at 9.1 nM; in experiment [2], 108 nM.
For the molecule `Cc1ccc(-c2nc(N)nc3c(Cc4ccc(F)cc4F)cnn23)o1` [Compound 10], the half-inhibitory concentration (IC50) in experiment [1] is 5 nM; in experiment [2] (setting [4]), 16.4 nM.
Consider `COCCNCc1cccc(Cc2cnn3c(-c4ccc(C)o4)nc(N)nc23)n1` [Compound 8], for which the 50% inhibitory concentration (IC50) is 31 nM in experiment [1] and 117 nM in experiment [2] (setting [4]).
The corresponding values for `Cc1ccc(-c2nc(N)nc3c(Cc4ccc(N)c(C)c4)cnn23)o1` [Compound 29] are 5.5 nM and 15.3 nM.
`Cc1ccc(-c2nc(N)nc3c(CC4CCCCC4)cnn23)o1` [Compound 13]: in experiment [1], it took 5.7 nM to reach half-maximal inhibition (IC50).
For `Cc1ccc(-c2nc(N)nc3c(Cc4cccc(N)c4)c(C)nn23)o1` [Compound 45], the IC50 was found to be 1.9 nM in experiment [1] and 6.2 nM in experiment [2] (setting [4]).
`Cc1ccc(-c2nc(N)nc3c(Cc4cccc(CO)n4)cnn23)o1` [Compound 5]: the IC50 in experiment [1] (setting [3]) was 5.3 nM; in experiment [2], 16.7 nM.
On to `Cc1ccc(-c2nc(N)nc3c(Cc4ccc(N)cc4)cnn23)o1` [Compound 26], for which the IC50 in experiment [1] came out at 17.4 nM; in experiment [2] (setting [4]) it was 2.7 nM.
On to `Cc1ccc(-c2nc(N)nc3c(CC4CCC4)cnn23)o1` [Compound 15], for which, in experiment [1], 16 nM corresponded to half-maximal inhibition (IC50).
`COCc1cccc(Cc2cnn3c(-n4ccc(C)n4)nc(N)nc23)n1` [Compound 4]: inhibition in experiment [1] was half-maximal at 17 nM (IC50).
`Cc1ccc(-c2nc(N)nc3c(Cc4cccc(CBr)n4)cnn23)o1` [Compound 6] gave an IC50 in experiment [1] of 10.2 nM.
The molecule `Cc1ccc(-c2nc(N)nc3c(Cc4ccc(N)c(C)c4)c(C)nn23)o1` [Compound 30] yielded an IC50 in experiment [1] of 5 nM.
On to `Cc1ccc(-c2nc(N)nc3c(Cc4ccccc4N)cnn23)o1` [Compound 27], for which the IC50 in experiment [1] was determined as 1.9 nM; in experiment [2] (setting [4]), 9.7 nM.
The corresponding values for `COc1cccc(Cc2cnn3c(-c4ccc(C)o4)nc(N)nc23)n1` [Compound 16] are 2.3 nM and 18.6 nM.
`Cc1ccc(-c2nc(N)nc3c(Cc4cccc(CO[C@H]5CCOC5)[n+]4[O-])cnn23)o1` [Compound 17]: the results for the 50% inhibitory concentration (IC50) in experiment [1] and in experiment [2] (setting [4]) were 90 nM and 1030 nM, respectively.
In the case of `Cc1ccc(-c2nc(N)nc3c(Cc4cccc(NCc5ccccc5)n4)cnn23)o1` [Compound 20], the IC50 in experiment [1] was determined as 5.5 nM; in experiment [2], 26 nM.
`Nc1cccc(Cc2cnn3c(-c4ccco4)nc(N)nc23)c1` [Compound 25]: the results for the IC50 in experiment [1] and in experiment [2] (setting [4]) were 35 nM and 60 nM, respectively.
As for `Cc1ccc(-c2nc(N)nc3c(Cc4cc(N)c(F)cc4F)cnn23)o1` [Compound 28], the figures for the IC50 in experiment [1] and in experiment [2] (setting [4]) were 1.6 nM and 7.7 nM, respectively.
In the case of `Cc1ccc(-c2nc(N)nc3c(Cc4cccc(N)c4)c(Cl)nn23)o1` [Compound 46], the values for the half-maximal inhibitory concentration (IC50) in experiment [1] and in experiment [2] (setting [4]) were 1.5 nM and 4.6 nM, respectively.
`Cn1ccc(-c2nc(N)nc3c(Cc4cccc(N)c4)cnn23)n1` [Compound 48]: the figures for the IC50 in experiment [1] and in experiment [2] (setting [4]) were 29.1 nM and 83.5 nM, respectively.
Regarding `Cc1ccc(-c2nc(N)nc3c(Cc4ccc(F)cc4)cnn23)o1` [Compound 1], the IC50 in experiment [1] was 3.3 nM; in experiment [2], 16 nM.
With `Cc1ccc(-c2nc(N)nc3c(Cc4ccc(F)cc4C)cnn23)o1` [Compound 11], the IC50 in experiment [1] amounted to 39 nM; in experiment [2] (setting [4]) it was 420 nM.
`COCCNc1cccc(Cc2cnn3c(-c4ccc(C)o4)nc(N)nc23)n1` [Compound 21]: the results for the IC50 in experiment [1] and in experiment [2] (setting [4]) were 4.7 nM and 36 nM, respectively.
Consider `Cc1ccc(-c2nc(N)nc3c(Cc4cccc(N)c4)c(F)nn23)o1` [Compound 47], for which the IC50 came out at 1.4 nM in experiment [1] and 4 nM in experiment [2] (setting [4]).
`Nc1cccc(Cc2cnn3c(-c4ccco4)nc(N)nc23)n1` [Compound 23]: the IC50 in experiment [1] was 46 nM; in experiment [2] (setting [4]), 13 nM.
Turning to `Cc1ccc(-c2nc(N)nc3c(Cc4cccc(COC5CC5)n4)cnn23)o1` [Compound 9], the results for the concentration for half-maximal inhibition (IC50) in experiment [1] and in experiment [2] (setting [4]) were 3.6 nM and 51 nM, respectively.
Take `Cc1ccc(-c2nc(N)nc3c(Cc4cccc(N)n4)cnn23)o1` [Compound 22]: the IC50 was found to be 5.8 nM in experiment [1] and 1.6 nM in experiment [2] (setting [4]).
With `Cc1ccc(-c2nc(N)nc3c(Cc4cccc(N)c4)cnn23)o1` [Compound 24], the IC50 in experiment [1] is 3 nM; in experiment [2] (setting [4]) it was 7.9 nM.
As for `Cc1ccc(-c2nc(N)nc3c(Cc4c(F)cc(F)cc4F)cnn23)o1` [Compound 12], the values for the concentration for half-maximal inhibition (IC50) in experiment [1] and in experiment [2] (setting [4]) were 1.5 nM and 3.8 nM, respectively.
For `Cc1ccc(-c2nc(N)nc3c(CC4CCCC4)cnn23)o1` [Compound 14], half-maximal inhibition in experiment [1] (IC50) required 10.4 nM.
With `Cc1ccc(N)c(Cc2cnn3c(-c4ccc(C)o4)nc(N)nc23)c1` [Compound 44], the IC50 is 6.2 nM in experiment [1] and 155 nM in experiment [2] (setting [4]).
`COCc1cccc(Cc2cnn3c(-c4cccs4)nc(N)nc23)n1` [Compound 3] showed an IC50 in experiment [1] of 96 nM.
Turning to `Cc1ccc(-c2nc(N)nc3c(Cc4cccc(C(C)(C)O)n4)cnn23)o1` [Compound 19], the IC50 came to 1.7 nM in experiment [1] and 70.5 nM in experiment [2].
`COCc1cccc(Cc2cnn3c(-c4ccc(C)o4)nc(N)nc23)n1` [Compound 2]: the results for the IC50 in experiment [1] (setting [3]) and in experiment [2] were 1.8 nM and 25 nM, respectively.
Take `COCCOCc1cccc(Cc2cnn3c(-c4ccc(C)o4)nc(N)nc23)n1` [Compound 7]: the IC50 came out at 7.1 nM in experiment [1] (read-out: A2A Antagonistic function IC50) and 103 nM in experiment [2].

(Values after patent US20220339160A1, “ADENOSINE RECEPTOR ANTAGONIST” (priority 2019, published 2022).)
